Literature values as cited in patent publication US20100183726A1, “COMPOSITIONS AND METHODS FOR TREATING CANCER WITH DACARBAZINE NANOEMULSIONS” (priority 2006, published 2010).
Like-named read-outs stand apart in the source and are kept apart here.

What was measured:
[1] = not given; remark: listed apart in the source
B16 cells = settings: 200 μg/ml
melanoma B16F10 cells = settings: 150 mg/kg; 14 days after inoculation; p<0.01 versus untreated controls
Cloudman S91 cells = settings: 100 μg/ml
[2] = dacarbazine alone, meta-analysis of 14 studies, 1167 patients

NC(=O)c1nc[nH]c1N [AIC, 5-aminoimidazol-me-4-carboxamide]
time to maximal serum concentration (after injection of dacarbazine): 15 min | time at which detectable after intravenous injection of dacarbazine (in vivo, iv): 15 min

CN(C)N=Nc1[nH]cnc1C(N)=O [dacarbazine, 5-(3,3-dimethyl-1-triazeno)imidazole-4-carboxamide]
patients developing constitutional symptoms (nausea, vomiting, occasionally diarrhea) ([1]; in vivo): 90% | cytopenia grade ([1]; white cell and platelet counts after injection): WHO grade 1 or rarely grade 2 | highest induction of apoptosis (B16 cells): 11% | complete remission (metastatic melanoma; 143 patients treated with dacarbazine alone): 5% | average response rates (metastatic melanoma; contemporary trials): < 10% | median progression-free survival (metastatic melanoma; contemporary trials): ≤ 2 months | average mean survival (metastatic melanoma; [2]): 8 months | average response rate (metastatic melanoma; [2]): 18.7% | complete remission average rate (metastatic melanoma; [2]): 5.4% | increased survival time (melanoma B16 cells; B16 cells implanted intraperitoneally): 29% | increased survival time (melanoma B16 cells; B16 cells implanted subcutaneously): 43% | inhibition of tumor growth (melanoma B16 cells; intraperitoneal injection): did not inhibit tumor growth | number of metastatic pulmonary nodules (melanoma B16F10 cells): significantly decreased | T50% α value relative to typical dose (higher doses (850-1980 mg/m^2)): 3.5 fold | injected dose crossing the blood-brain barrier (in vivo): 13% | protein binding (in vivo): binds weakly to proteins | secretion in breast milk (in vivo): secreted in breast milk | volume of distribution (in vivo): exceeds the water volume of the body | bioavailable fraction (intravenously injected): 50-60% | fraction of an oral dose absorbed (oral administration): 14-23% | renal clearance (regardless of the dose injected): exceeds creatinine clearance | highest induction of apoptosis (Cloudman S91 cells): 22.2%
